Laboratory results as given in patent US11155571B2, “Salt of pyranose-substituted heterocyclic compound, preparation method therefor and use thereof” (Yabao Pharmaceutical Group Co., Ltd., priority 2018, dated 2021).

Assay: Solubility in water
Assay type: physicochemical

`Cc1cccc2c1c(Cc1ccc(OCCCN3CCCC4(CCN(C(=O)CNC(=O)NCC(C)C)CC4)C3)cc1)cn2C1O[C@H](CO)[C@@H](O)[C@H](O)[C@H]1O` (stereo partly shown) [compound represented by formula (II)] showed a solubility of less than 2300 µg/mL.
